Experiments:
[1] = test system: ABUTH (Abutilon theophrasti); assay: Postemergence herbicidal evaluation; type: in vivo, Medic.; conditions: postemergence
Procedure, shortened: (§1)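 Seedlings grown about two weeks in flats, sprayed, then kept under standard greenhouse care. Rated visually 4–5 weeks after treatment on a 0–9 scale (stand, vigour, malformation, size, chlorosis, overall appearance) relative to untreated control; repeat tests averaged.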

[2] = test system: AMBEL (Ambrosia artemisifolia); assay: Postemergence herbicidal evaluation; type: in vivo, L.; conditions: postemergence
Procedure, shortened: as §1

[3] = test system: CASOB (Cassia obtusifolia); assay: Postemergence herbicidal evaluation; type: in vivo, L.; conditions: postemergence
Procedure, shortened: as §1

[4] = test system: CHEAL (Chenopodium album); assay: Postemergence herbicidal evaluation; type: in vivo, L.; conditions: postemergence
Procedure, shortened: as §1

[5] = test system: IPOHE (Ipomoea hederacea); assay: Postemergence herbicidal evaluation; type: in vivo, (L.) Jacq.; conditions: postemergence
Procedure, shortened: as §1

[6] = test system: ECHCG (Echinochloa crus-galli); assay: Postemergence herbicidal evaluation; type: in vivo, (L.) Beau; conditions: postemergence
Procedure, shortened: as §1

[7] = test system: ORYSAT (Rice, Tebonnet); assay: Postemergence herbicidal evaluation; type: in vivo, Oryza sativa, (L.) Tebonnet; conditions: postemergence
Procedure, shortened: as §1

[8] = test system: TRZAWR (Wheat, Winter, cv Riband); assay: Postemergence herbicidal evaluation; type: in vivo, Triticum aestivum; conditions: postemergence
Procedure, shortened: as §1

[9] = test system: ZEAMX (Corn, Field); assay: Postemergence herbicidal evaluation; type: in vivo, Zea mays, L.; conditions: postemergence
Procedure, shortened: as §1

[10] = test system: ABUTH (Abutilon theophrasti); assay: Preemergence herbicidal evaluation; type: in vivo, Medic.; conditions: preemergence, rated 4-5 weeks after treatment
[11] = test system: AMBEL (Ambrosia artemisifolia); assay: Preemergence herbicidal evaluation; type: in vivo, L.; conditions: preemergence, rated 4-5 weeks after treatment
Procedure, shortened: (§2)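 Scores (0–9) reflect visual comparison with control plants for stand, vigor, malformation, size and chlorosis. Seeds in potting soil received a post-planting spray of compound in aqueous acetone and grew in a greenhouse until assessment 4–5 weeks later.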

[12] = test system: CASOB (Cassia obtusifolia); assay: Preemergence herbicidal evaluation; type: in vivo, L.; conditions: preemergence, rated 4-5 weeks after treatment
Procedure, shortened: as §2

[13] = test system: CHEAL (Chenopodium album); assay: Preemergence herbicidal evaluation; type: in vivo, L.; conditions: preemergence, rated 4-5 weeks after treatment
Procedure, shortened: as §2

[14] = test system: ORYSAT (Rice, Tebonnet); assay: Preemergence herbicidal evaluation; type: in vivo, Oryza sativa, (L.) Tebonnet; conditions: preemergence, rated 4-5 weeks after treatment
[15] = test system: TRZAWR (Wheat, Winter, cv Riband); assay: Preemergence herbicidal evaluation; type: in vivo, Triticum aestivum; conditions: preemergence, rated 4-5 weeks after treatment
Procedure, shortened: as §2

[16] = test system: ECHORC (Echinochloa oryzoides); assay: Flooded paddy, preemergence weed control; type: in vivo, Echinochloa oryzoides (Ard.) Fritsch.; conditions: rated 3-4 weeks after treatment, 0-9 rating scale
Procedure, shortened: (§3)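 In this preemergence paddy assay, weed seeds or organs are sown at up to 0.5 cm in silt loam and covered by 1.5–3 cm of water for the full test period. After treatment the pots are kept in a greenhouse, and herbicidal effect is rated 0-9 visually against a control.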

[17] = test system: SAGPY (Sagittaria pygmaea); assay: Flooded paddy, preemergence weed control; type: in vivo, L.; conditions: rated 3-4 weeks after treatment, 0-9 rating scale
Procedure, shortened: as §3

[18] = test system: ORYSAT (Rice, Tebonnet); assay: Flooded paddy, post-transplant rice tolerance; type: in vivo, Oryza sativa, (L.) Tebonnet; conditions: flooded paddy, post-transplant rice, rated 3-4 weeks after treatment, 0-9 rating scale
Procedure, shortened: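 Two ten-day-old seedlings were transplanted into silt loam, flooded and held at 1.5 to 3 cm water above the soil before herbicide treatment. Pots stayed in the greenhouse at that water level. Injury was scored visually on a 0-9 scale versus untreated control.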

For `CSCC1COC(c2nsc3ccc(-n4c(=O)cc(C(F)(F)F)n(C)c4=O)cc23)O1` (centres unmarked) [Compound 84, 1-methyl-3-[3-[4-[(methylthio)methyl]-1,3-dioxolan-2-yl]-1,2-benzisothiazol-5-yl]-6-(trifluoromethyl)uracil], the ABUTH herbicidal rating ([1]; rate 0.0320 kg/ha) was 9.0, the ABUTH herbicidal rating ([1]; rate 0.0620 kg/ha) was 9.0 and the ABUTH herbicidal rating ([1]; rate 0.1250 kg/ha) was 9.0. It also gave an AMBEL herbicidal rating ([2]; rate 0.0320 kg/ha) of 7.5, an AMBEL herbicidal rating ([2]; rate 0.0620 kg/ha) of 9.0 and an AMBEL herbicidal rating ([2]; rate 0.1250 kg/ha) of 9.0. For the same molecule, the CASOB herbicidal rating ([3]; rate 0.0320 kg/ha) was 7.0, the CASOB herbicidal rating ([3]; rate 0.0620 kg/ha) was 7.0 and the CASOB herbicidal rating ([3]; rate 0.1250 kg/ha) was 9.0. For the same molecule, the CHEAL herbicidal rating ([4]; rate 0.0320 kg/ha) was 9.0, the CHEAL herbicidal rating ([4]; rate 0.0620 kg/ha) was 9.0 and the CHEAL herbicidal rating ([4]; rate 0.1250 kg/ha) was 9.0. For the same molecule, the IPOHE herbicidal rating ([5]; rate 0.0320 kg/ha) was 9.0, the IPOHE herbicidal rating ([5]; rate 0.0620 kg/ha) was 9.0 and the IPOHE herbicidal rating ([5]; rate 0.1250 kg/ha) was 9.0. The ECHCG herbicidal rating ([6]; rate 0.0320 kg/ha) was 4.5, the ECHCG herbicidal rating ([6]; rate 0.0620 kg/ha) was 6.5 and the ECHCG herbicidal rating ([6]; rate 0.1250 kg/ha) was 9.0. It also gave an ORYSAT herbicidal rating ([7]; rate 0.0320 kg/ha) of 5.3, an ORYSAT herbicidal rating ([7]; rate 0.0620 kg/ha) of 6.5 and an ORYSAT herbicidal rating ([7]; rate 0.1250 kg/ha) of 9.0. It also gave a TRZAWR herbicidal rating ([8]; rate 0.0320 kg/ha) of 4.8, a TRZAWR herbicidal rating ([8]; rate 0.0620 kg/ha) of 6.3 and a TRZAWR herbicidal rating ([8]; rate 0.1250 kg/ha) of 9.0. It also gave a ZEAMX herbicidal rating ([9]; rate 0.0320 kg/ha) of 4.8, a ZEAMX herbicidal rating ([9]; rate 0.0620 kg/ha) of 6.0 and a ZEAMX herbicidal rating ([9]; rate 0.1250 kg/ha) of 8.5. The “Preemergence herbicidal rating ABUTH” value ([10]; rate 0.0620 kg/ha) was 9.0, the “Preemergence herbicidal rating ABUTH” value ([10]; rate 0.1250 kg/ha) was 9.0 and the “Preemergence herbicidal rating ABUTH” value ([10]; rate 0.2500 kg/ha) was 9.0. The “Preemergence herbicidal rating AMBEL” value ([11]; rate 0.0620 kg/ha) was 9.0, the “Preemergence herbicidal rating AMBEL” value ([11]; rate 0.1250 kg/ha) was 9.0 and the “Preemergence herbicidal rating AMBEL” value ([11]; rate 0.2500 kg/ha) was 9.0. The “Preemergence herbicidal rating CASOB” value ([12]; rate 0.0620 kg/ha) was 4.0, the “Preemergence herbicidal rating CASOB” value ([12]; rate 0.1250 kg/ha) was 8.0 and the “Preemergence herbicidal rating CASOB” value ([12]; rate 0.2500 kg/ha) was 9.0. For the same molecule, the “Preemergence herbicidal rating CHEAL” value ([13]; rate 0.0620 kg/ha) was 9.0, the “Preemergence herbicidal rating CHEAL” value ([13]; rate 0.1250 kg/ha) was 9.0 and the “Preemergence herbicidal rating CHEAL” value ([13]; rate 0.2500 kg/ha) was 9.0. The “Preemergence herbicidal rating ORYSAT” value ([14]; rate 0.0620 kg/ha) was 2.5, the “Preemergence herbicidal rating ORYSAT” value ([14]; rate 0.1250 kg/ha) was 3.5 and the “Preemergence herbicidal rating ORYSAT” value ([14]; rate 0.2500 kg/ha) was 6.0. For the same molecule, the “Preemergence herbicidal rating TRZAWR” value ([15]; rate 0.0620 kg/ha) was 2.0, the “Preemergence herbicidal rating TRZAWR” value ([15]; rate 0.1250 kg/ha) was 5.0 and the “herbicidal rating, ECHORC” value ([16]; rate 0.0080 kg/ha) was 0.0. For the same molecule, the “herbicidal rating, ECHORC” value ([16]; rate 0.0320 kg/ha) was 7.5, the “herbicidal rating, ECHORC” value ([16]; rate 0.1250 kg/ha) was 8.0 and the “herbicidal rating, SAGPY” value ([17]; rate 0.0080 kg/ha) was 0.0. The “herbicidal rating, SAGPY” value ([17]; rate 0.0320 kg/ha) was 0.0, the “herbicidal rating, SAGPY” value ([17]; rate 0.1250 kg/ha) was 4.0 and the “herbicidal rating, ORYSAT (rice tolerance)” value (“herbicidal rating, ORYSAT” for short) ([18]; rate 0.0080 kg/ha) was 0.0. For the same molecule, the “herbicidal rating, ORYSAT” value ([18]; rate 0.0320 kg/ha) was 1.5 and the “herbicidal rating, ORYSAT” value ([18]; rate 0.1250 kg/ha) was 5.5.
For `Cn1c(C(F)(F)F)cc(=O)n(-c2ccc3snc(-c4sccc4CO)c3c2)c1=O` [Compound 85, 3-[3-[3-(hydroxymethyl)-2-thienyl]-1,2-benzisothiazol-5-yl]-1-methyl-6-(trifluoromethyl)uracil], the ABUTH herbicidal rating ([1]; rate 0.0320 kg/ha) was 9.0, the ABUTH herbicidal rating ([1]; rate 0.0620 kg/ha) was 9.0 and the AMBEL herbicidal rating ([2]; rate 0.0320 kg/ha) was 5.0. For the same molecule, the AMBEL herbicidal rating ([2]; rate 0.0620 kg/ha) was 9.0, the CASOB herbicidal rating ([3]; rate 0.0320 kg/ha) was 4.0 and the CASOB herbicidal rating ([3]; rate 0.0620 kg/ha) was 4.0. It also gave a CHEAL herbicidal rating ([4]; rate 0.0320 kg/ha) of 9.0, a CHEAL herbicidal rating ([4]; rate 0.0620 kg/ha) of 9.0 and an IPOHE herbicidal rating ([5]; rate 0.0320 kg/ha) of 9.0. It also gave an IPOHE herbicidal rating ([5]; rate 0.0620 kg/ha) of 9.0, an ECHCG herbicidal rating ([6]; rate 0.0320 kg/ha) of 0.0 and an ECHCG herbicidal rating ([6]; rate 0.0620 kg/ha) of 2.0. It also gave an ORYSAT herbicidal rating ([7]; rate 0.0320 kg/ha) of 3.5, an ORYSAT herbicidal rating ([7]; rate 0.0620 kg/ha) of 4.5 and a TRZAWR herbicidal rating ([8]; rate 0.0320 kg/ha) of 2.0. The TRZAWR herbicidal rating ([8]; rate 0.0620 kg/ha) was 3.5, the ZEAMX herbicidal rating ([9]; rate 0.0320 kg/ha) was 4.5 and the ZEAMX herbicidal rating ([9]; rate 0.0620 kg/ha) was 5.0. For the same molecule, the “Preemergence herbicidal rating ABUTH” value ([10]; rate 0.0620 kg/ha) was 9.0, the “Preemergence herbicidal rating ABUTH” value ([10]; rate 0.1250 kg/ha) was 9.0 and the “Preemergence herbicidal rating ABUTH” value ([10]; rate 0.2500 kg/ha) was 9.0. The “Preemergence herbicidal rating AMBEL” value ([11]; rate 0.0620 kg/ha) was 8.0, the “Preemergence herbicidal rating AMBEL” value ([11]; rate 0.1250 kg/ha) was 9.0 and the “Preemergence herbicidal rating AMBEL” value ([11]; rate 0.2500 kg/ha) was 9.0. The “Preemergence herbicidal rating CASOB” value ([12]; rate 0.0620 kg/ha) was 0.0, the “Preemergence herbicidal rating CASOB” value ([12]; rate 0.1250 kg/ha) was 3.0 and the “Preemergence herbicidal rating CASOB” value ([12]; rate 0.2500 kg/ha) was 5.0. For the same molecule, the “Preemergence herbicidal rating CHEAL” value ([13]; rate 0.0620 kg/ha) was 9.0, the “Preemergence herbicidal rating CHEAL” value ([13]; rate 0.1250 kg/ha) was 9.0 and the “Preemergence herbicidal rating CHEAL” value ([13]; rate 0.2500 kg/ha) was 9.0. For the same molecule, the “Preemergence herbicidal rating ORYSAT” value ([14]; rate 0.0620 kg/ha) was 2.0, the “Preemergence herbicidal rating ORYSAT” value ([14]; rate 0.1250 kg/ha) was 6.0 and the “Preemergence herbicidal rating ORYSAT” value ([14]; rate 0.2500 kg/ha) was 7.0. For the same molecule, the “Preemergence herbicidal rating TRZAWR” value ([15]; rate 0.0620 kg/ha) was 0.0, the “Preemergence herbicidal rating TRZAWR” value ([15]; rate 0.1250 kg/ha) was 0.0 and the “Preemergence herbicidal rating TRZAWR” value ([15]; rate 0.2500 kg/ha) was 3.0. The ECHORC herbicidal rating ([16]; rate 0.0080 kg/ha) was 0.0, the ECHORC herbicidal rating ([16]; rate 0.0320 kg/ha) was 5.0 and the “herbicidal rating, ECHORC” value ([16]; rate 0.1250 kg/ha) was 8.0. For the same molecule, the SAGPY herbicidal rating ([17]; rate 0.0080 kg/ha) was 0.0, the SAGPY herbicidal rating ([17]; rate 0.0320 kg/ha) was 1.5 and the “herbicidal rating, SAGPY” value ([17]; rate 0.1250 kg/ha) was 7.0. The “ORYSAT herbicidal rating (transplanted rice tolerance)” value ([18]; rate 0.0080 kg/ha) was 0.0, the “ORYSAT herbicidal rating (transplanted rice tolerance)” value ([18]; rate 0.0320 kg/ha) was 1.5 and the “herbicidal rating, ORYSAT” value ([18]; rate 0.1250 kg/ha) was 5.5.

From patent US6706663B2, “Herbicidal 3-heterocyclic substituted benzisothiazole and benzisoxazole compounds” (Wyeth, priority 2000, dated 2004)
